Results reported in patent US8183387B2, “Phenylpyrazole derivatives” (Taisho Pharmaceutical Co., Ltd, priority 2007, dated 2012).

Columns and labels:
[1] = Distribution test in rats; assay type: in vivo, rat; details: SD rats, single oral dose 3 mg/kg (2.75 mg/kg as a free form); plasma and organs at 1, 2, 4, 8 and 24 hours
Method: SD rats were used and orally administered once with the compound of Example 70 at a dose of 3 mg/kg (2.75 mg/kg as a free form) to confirm the tissue distribution of the compound in plasma, brain, liver, kidney, spleen, lung, heart, muscle, fat, testis, bone marrow and adrenal gland at 1, 2, 4, 8 and 24 hours after administration. For quantification, high performance liquid chromatography/tandem mass spectrometry (LC-MS/MS) was used.

σ1 receptor = target: T1, σ1 receptor (Homo sapiens, UniProt Q99720); experiment: [3H](+)pentazocine binding test; details: [3H](+)pentazocine 8 nM, Jurkat cell membrane
T1 construct: host or cells: Jurkat cells (membrane)
T1 sequence (Q99720 whole entry): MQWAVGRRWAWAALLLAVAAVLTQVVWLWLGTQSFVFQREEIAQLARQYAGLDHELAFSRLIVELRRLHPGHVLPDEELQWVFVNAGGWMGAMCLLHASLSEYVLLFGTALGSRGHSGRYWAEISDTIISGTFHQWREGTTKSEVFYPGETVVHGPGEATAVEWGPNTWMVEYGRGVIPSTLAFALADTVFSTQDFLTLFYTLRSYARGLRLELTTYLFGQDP
Method: Affinity for σ1 receptor was evaluated in a [^3H](+)pentazocine binding test by Cerep, Inc. The σ1 receptor preparation used was the membrane of Jurkat cells. The Jurkat cell membrane was incubated with [^3H](+)pentazocine (8 nM) at 22° C. for 120 minutes.

[2] = target: T2, human recombinant δ receptor (Homo sapiens, UniProt P41143); experiment: [3H]DADLE binding test; details: [3H]DADLE 0.5 nM
T2 construct: Cerep, Inc. (contract assay)
T2 sequence (P41143 whole entry): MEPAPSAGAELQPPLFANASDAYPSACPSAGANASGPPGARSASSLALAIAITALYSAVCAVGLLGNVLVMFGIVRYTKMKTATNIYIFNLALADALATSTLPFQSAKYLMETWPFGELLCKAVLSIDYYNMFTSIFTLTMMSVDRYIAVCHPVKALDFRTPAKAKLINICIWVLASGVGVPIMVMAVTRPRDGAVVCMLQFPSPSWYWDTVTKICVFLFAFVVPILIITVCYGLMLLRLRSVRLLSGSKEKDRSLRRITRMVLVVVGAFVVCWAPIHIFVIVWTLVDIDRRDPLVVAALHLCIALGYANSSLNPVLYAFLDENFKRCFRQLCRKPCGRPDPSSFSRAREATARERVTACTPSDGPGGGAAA
Method: Affinity for δ receptor was evaluated in a [^3H]DADLE binding test by Cerep, Inc. The δ receptor preparation used was human recombinant δ receptor. The human recombinant δ receptor was incubated with [^3H]DADLE (0.5 nM) at 22° C. for 120 minutes.

[3] = target: T3, rat recombinant κ receptor (Rattus norvegicus, UniProt P34975); experiment: [3H]U69593 binding test; details: [3H]U69593 1 nM
T3 construct: Cerep, Inc. (contract assay)
T3 sequence (P34975 whole entry): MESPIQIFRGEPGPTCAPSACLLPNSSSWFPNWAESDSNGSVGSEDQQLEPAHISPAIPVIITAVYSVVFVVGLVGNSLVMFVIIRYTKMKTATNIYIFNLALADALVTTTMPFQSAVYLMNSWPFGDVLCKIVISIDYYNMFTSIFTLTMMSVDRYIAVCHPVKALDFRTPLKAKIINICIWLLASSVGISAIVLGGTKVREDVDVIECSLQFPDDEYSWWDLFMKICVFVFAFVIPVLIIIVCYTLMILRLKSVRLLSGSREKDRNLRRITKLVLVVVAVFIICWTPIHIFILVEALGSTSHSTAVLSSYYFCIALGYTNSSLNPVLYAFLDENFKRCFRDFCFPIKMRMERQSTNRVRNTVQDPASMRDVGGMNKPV
Method: Affinity for κ receptor was evaluated in a [^3H]U69593 binding test by Cerep, Inc. The κ receptor preparation used was rat recombinant κ receptor. The rat recombinant κ receptor was incubated with [^3H]U69593 (1 nM) at 22° C. for 60 minutes.

CHL/IU cells = experiment: Cytotoxicity test; assay type: cell-based, Chinese hamster; details: 48 hours culture, Cell counting kit-8
Method: Chinese hamster lung fibroblast-derived CHL/IU cells (DS Pharma Biomedical Co., Ltd., Japan) were seeded, and the medium was replaced on the following day by another medium (MEM+2 mM L-Glutamine+10% CS (all purchased from Invitrogen)) containing a test compound at various concentrations, followed by culture for an additional 48 hours. Using a Cell counting kit-8 (Dojindo Laboratories, Japan), the survival rate of the cells was determined to obtain a curve whose horizontal axis represents the test compound concentration and whose vertical axis represents the survival rate. The curve thus obtained was used to determine the concentration of the test compound at which the survival rate was 50%. As a result, this concentration was 275, 441 and >640 mmol/L for the compounds of Examples 56, 62 and 70, respectively.

[4] = target: human recombinant μ receptor (Homo sapiens, UniProt P35372); experiment: [3H]diprenorphine binding test; details: read-out: % Inhibition (10 μM), μ receptor
Chain of human recombinant μ receptor (P35372 whole entry): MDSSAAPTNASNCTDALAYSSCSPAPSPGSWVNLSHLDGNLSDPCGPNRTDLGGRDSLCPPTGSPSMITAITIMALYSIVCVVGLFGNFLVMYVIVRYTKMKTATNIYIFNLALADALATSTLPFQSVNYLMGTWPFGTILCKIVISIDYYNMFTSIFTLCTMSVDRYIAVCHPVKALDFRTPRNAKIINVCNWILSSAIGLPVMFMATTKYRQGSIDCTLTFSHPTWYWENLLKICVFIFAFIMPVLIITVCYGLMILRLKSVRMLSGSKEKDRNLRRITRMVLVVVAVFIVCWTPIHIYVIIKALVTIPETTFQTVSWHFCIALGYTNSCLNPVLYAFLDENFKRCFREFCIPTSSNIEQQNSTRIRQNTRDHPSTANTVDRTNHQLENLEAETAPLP

Sprague-Dawley rats = experiment: Social recognition test; assay type: in vivo, rat
Method: This experiment was performed with Sprague-Dawley rats (male) according to the reported method (Shimazaki et al., European Journal of Pharmacology, 575, 94-97, 2007). Adult rats (9 weeks of age) were placed in a test cage and acclimated for 30 minutes. After 30 minutes, juvenile rats (4 weeks of age) were placed in the same test cage containing the adult rats, and allowed to stand for 5 minutes. During this 5 minutes, the time taken for the adult rats to show social behavior (sniffing, grooming, following) to the juvenile rats was measured (first exploratory time). Then, the rats were removed from the test cage and returned to their respective home cages. After 85 minutes, the adult rats were placed again in the test cage and acclimated for 30 minutes. The same juvenile rats as used in the first exploratory were placed in the test cage, followed by measuring the time taken for the adult rats to show social behavior (sniffing, grooming, following) to the juvenile rats during 5 minutes (second exploratory time). The social recognition was expressed as the ratio of second exploratory time/first exploratory time. A test substance (the compound of Example 70) was orally administered to the adult rats immediately after their first social behavior.

[5] = Metabolic stability test in human liver; assay type: in vitro ADME; details: liver microsomes, pH 7.4; human liver microsome 1 mg protein/mL, test compound 1 μM, 37° C.
Method: Using human liver microsome (Xenotech, H0630), the in vitro metabolic half-life was calculated. A reaction solution (300 μL) was prepared to contain a test compound at 1 μM in 250 mM Na—K-phosphate buffer (pH 7.4) containing, at final concentrations, 2.4 mM MgCl2, 1.5 mM glucose-6-phosphate (G-6-P), 0.18 U/mL glucose-6-phosphate dehydrogenase (G-6-P DH), 69 mM KCl, 0.16 mM (3-nicotinamide-adenine dinucleotide phosphate, oxidized form (NADP) and 1 mg microsomal protein/mL. After pre-incubation at 37° C. for 5 minutes, the NADP solution was added to initiate the reaction. The incubation time was set to 0, 10, 20, 30, 45 or 60 minutes. The reaction was stopped by addition of a CH3CN:CH3OH (1:1) solution in the same volume as that of the reaction solution. The sample after the reaction was centrifuged at 3639×g at 4° C. for 10 minutes, and the resulting supernatant was analyzed by LC/MS. Using the time period during which linearity was observed, the metabolic half-life was calculated from the slope.

Compound | tissue distribution of unchanged form and major metabolites [1] | inhibition at 10 µM (σ1 receptor) | inhibition at 10 µM [2] | inhibition at 10 µM [3] | concentration of the test compound at which the survival rate was 50% (CHL/IU cells) | inhibition at 10 µM [4] | effect on cognitive functions (Sprague-Dawley rats; 10 mg/kg oral, rats, compared to vehicle group) | Ratio (second exploratory time/first exploratory time) (Sprague-Dawley rats; 10 mg/kg orally to adult rats immediately after first social behavior, n = 18, p<0.01 vs vehicle) | half-life at 1 μM [5]
C[C@@H]1CCCN1CCCOc1ccc(-n2cc(C(=O)N3CCOCC3)cn2)cc1.Cl [Example 70, 4-{[1-(4-{3-[(2R)-2-methylpyrrolidin-1-yl]propoxy}phenyl)-1H-pyrazol-4-yl]carbonyl}morpholine monohydrochloride] | rapidly disappear from each organ | 28% | -1% | 17% | > 640000 µM | 3% | had an enhancing effect on cognitive functions | 0.66 ± 0.06^p<0.01 | 
C[C@@H]1CCCN1CCCOc1ccc(-n2cc(C(=O)N3CCOCC3)cn2)cc1 [Example 6, 4-{[1-(4-{3-[(2R)-2-methylpyrrolidin-1-yl]propoxy}phenyl)-1H-pyrazol-4-yl]carbonyl}morpholine] |  |  |  |  |  |  |  |  | ≥ 3 h
